Test results taken from patent publication US8071625B2, “Certain chemical entities, compositions, and methods” (Cytokinetics, Inc., priority 2006, dated 2011).

Biological target: T1, crosslinked smooth muscle actomyosin (chicken gizzard smooth muscle myosin subfragment-1 crosslinked to cardiac or skeletal actin) (Gallus gallus, UniProt P10587)
T1 construct: chicken gizzard smooth muscle myosin subfragment-1; from tissue; host or cells: chicken gizzard
Experiment: Lead optimization pyruvate kinase/horseradish peroxidase/pyruvate oxidase-coupled ATPase assay (compound dose response)
Format: biochemical
Details: read-out: IC50 Arithmetic Mean
Summary of the method: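 The ATPase used chicken gizzard smooth muscle myosin S1 chemically crosslinked to cardiac or skeletal actin, titrated to a set hydrolysis rate. It was coupled via pyruvate kinase/pyruvate oxidase/HRP in 12 mM K-PIPES pH 7.00 (22 °C) with 0.15 mM ATP, 2 mM MgCl2, 100 mM KCl and 0.1 mM Amplex Red. Fluorescence was read at ex 480/em 615 nm, and IC50 came from a 4-parameter fit.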

| SMILES | IC50 [nM] |
| --- | --- |
| CCc1ccc(NC(=O)OCC2(C(=O)NCc3ccc(F)cc3Cl)CCN(C(=O)CN)CC2)cc1 [[(1-(2-aminoacetyl)-4-{N-[(2-chloro-4-fluorophenyl)methyl]carbamoyl}(4-piperidyl))methoxy]-N-(4-ethylphenyl)carboxamide] | 158 |
| CCc1ccc(NC(=O)OCC2(C(=O)NCc3ccccc3CC)CCN(C(=O)CN)CC2)cc1 [[(1-(2-aminoacetyl)-4-{N-[(2-ethylphenyl)methyl]carbamoyl}(4-piperidyl))methoxy]-N-(4-ethylphenyl)carboxamide] | 951 |
| CCc1ccc(NC(=O)OCC2(C(=O)NCc3cccnc3C)CCN(C(=O)CN)CC2)cc1 [[(1-(2-aminoacetyl)-4-{N-[(2-methyl(3-pyridyl))methyl]carbamoyl}(4-piperidyl))methoxy]-N-(4-ethylphenyl)carboxamide] | 9440 |
| CCc1ccc(NC(=O)OCC2(C(=O)NCc3cccc(Cl)c3F)CCN(C(=O)CN)CC2)cc1 [[(1-(2-aminoacetyl)-4-{N-[(3-chloro-2-fluorophenyl)methyl]carbamoyl}(4-piperidyl))methoxy]-N-(4-ethylphenyl)carboxamide] | 99 |
| NCC(=O)N1CCC(COC(=O)Nc2ccc(C(F)(F)F)cc2)(C(=O)NCc2cccc(Cl)c2F)CC1 [[(1-(2-aminoacetyl)-4-{N-[(3-chloro-2-fluorophenyl)methyl]carbamoyl}(4-piperidyl))methoxy]-N-[4-(trifluoromethyl)phenyl]carboxamide] | 370 |
| CCc1ccc(NC(=O)OCC2(C(=O)NCc3cccc(Cl)c3C)CCN(C(=O)CN)CC2)cc1 [[(1-(2-aminoacetyl)-4-{N-[(3-chloro-2-methylphenyl)methyl]carbamoyl}(4-piperidyl))methoxy]-N-(4-ethylphenyl)carboxamide] | 83 |
| Cc1c(Cl)cccc1CNC(=O)C1(COC(=O)Nc2ccc(C(F)(F)F)cc2)CCN(C(=O)CN)CC1 [[(1-(2-aminoacetyl)-4-{N-[(3-chloro-2-methylphenyl)methyl]carbamoyl}(4-piperidyl))methoxy]-N-[4-(trifluoromethyl)phenyl]carboxamide] | 179 |
| CCc1ccc(NC(=O)OCC2(C(=O)NCc3cccc(Cl)c3)CCN(C(=O)CN)CC2)cc1 [[(1-(2-aminoacetyl)-4-{N-[(3-chlorophenyl)methyl]carbamoyl}(4-piperidyl))methoxy]-N-(4-ethylphenyl)carboxamide] | 729 |
| CCc1ccc(NC(=O)OCC2(C(=O)NCc3cccc(F)c3C)CCN(C(=O)CN)CC2)cc1 [[(1-(2-aminoacetyl)-4-{N-[(3-fluoro-2-methylphenyl)methyl]carbamoyl}(4-piperidyl))methoxy]-N-(4-ethylphenyl)carboxamide] | 81 |
| CCc1ccc(NC(=O)OCC2(C(=O)NCc3ncc[nH]3)CCN(C(=O)CNC(=O)OC(C)(C)C)CC2)cc1 [[(1-{2-[(tert-butoxy)carbonylamino]acetyl}-4-[N-(imidazol-2-ylmethyl)carbamoyl](4-piperidyl))methoxy]-N-(4-ethylphenyl)carboxamide] | 1770 |
| CCc1ccc(NC(=O)OCC2(C(=O)NCc3ccc(F)cc3Cl)CCN(C(=O)CNC(=O)OC(C)(C)C)CC2)cc1 [[(1-{2-[(tert-butoxy)carbonylamino]acetyl}-4-{N-[(2-chloro-4-fluorophenyl)methyl]carbamoyl}(4-piperidyl))methoxy]-N-(4-ethylphenyl)carboxamide] | 1080 |
| CC(C)(C)OC(=O)NCC(=O)N1CCC(COC(=O)Nc2ccc(C(F)(F)F)cc2)(C(=O)NCc2cccc(Cl)c2F)CC1 [[(1-{2-[(tert-butoxy)carbonylamino]acetyl}-4-{N-[(3-chloro-2-fluorophenyl)methyl]carbamoyl}(4-piperidyl))methoxy]-N-[4-(trifluoromethyl)phenyl]carboxamide] | 6560 |
| Cc1c(Cl)cccc1CNC(=O)C1(COC(=O)Nc2ccc(C(F)(F)F)cc2)CCN(C(=O)CNC(=O)OC(C)(C)C)CC1 [[(1-{2-[(tert-butoxy)carbonylamino]acetyl}-4-{N-[(3-chloro-2-methylphenyl)methyl]carbamoyl}(4-piperidyl))methoxy]-N-[4-(trifluoromethyl)phenyl]carboxamide] | 5640 |
| Cc1c(F)cccc1CNC(=O)C1(COC(=O)Nc2ccc(C(F)(F)F)cc2)CCN(C(=O)CNC(=O)OC(C)(C)C)CC1 [[(1-{2-[(tert-butoxy)carbonylamino]acetyl}-4-{N-[(3-fluoro-2-methylphenyl)methyl]carbamoyl}(4-piperidyl))methoxy]-N-[4-(trifluoromethyl)phenyl]carboxamide] | 3180 |
| CCc1ccc(NC(=O)OCC2(C(=O)NCc3cccc(F)c3)CCN(C(=O)CNC(=O)OC(C)(C)C)CC2)cc1 [[(1-{2-[(tert-butoxy)carbonylamino]acetyl}-4-{N-[(3-fluorophenyl)methyl]carbamoyl}(4-piperidyl))methoxy]-N-(4-ethylphenyl)carboxamide] | 8240 |
| CCc1ccc(NC(=O)OCC2(C(=O)NCc3ccc(Cl)cc3)CCN(C(=O)CNC(=O)OC(C)(C)C)CC2)cc1 [[(1-{2-[(tert-butoxy)carbonylamino]acetyl}-4-{N-[(4-chlorophenyl)methyl]carbamoyl}(4-piperidyl))methoxy]-N-(4-ethylphenyl)carboxamide] | 14500 |
| CCc1ccc(NC(=O)OCC2(C(=O)NCc3ccc(F)cc3)CCN(C(=O)CNC(=O)OC(C)(C)C)CC2)cc1 [[(1-{2-[(tert-butoxy)carbonylamino]acetyl}-4-{N-[(4-fluorophenyl)methyl]carbamoyl}(4-piperidyl))methoxy]-N-(4-ethylphenyl)carboxamide] | 10100 |
| CCc1ccc(NC(=O)OCC2(C(=O)NCc3cccc(Cl)c3Cl)CCN(C(=O)CNC(=O)OC(C)(C)C)CC2)cc1 [[(4-{N-[(2,3-dichlorophenyl)methyl]carbamoyl}-1-{2-[(tert-butoxy)carbonylamino]acetyl}(4-piperidyl))methoxy]-N-(4-ethylphenyl)carboxamide] | 313 |
| CC(C)(C)OC(=O)NCC(=O)N1CCC(COC(=O)Nc2ccc(C(F)(F)F)cc2)(C(=O)NCc2cccc(Cl)c2Cl)CC1 [[(4-{N-[(2,3-dichlorophenyl)methyl]carbamoyl}-1-{2-[(tert-butoxy)carbonylamino]acetyl}(4-piperidyl))methoxy]-N-[4-(trifluoromethyl)phenyl]carboxamide] | 3720 |
| CCc1ccc(NC(=O)OCC2(C(=O)NCc3cccc(F)c3F)CCN(C(=O)CNC(=O)OC(C)(C)C)CC2)cc1 [[(4-{N-[(2,3-difluorophenyl)methyl]carbamoyl}-1-{2-[(tert-butoxy)carbonylamino]acetyl}(4-piperidyl))methoxy]-N-(4-ethylphenyl)carboxamide] | 1590 |

The next lines start with the values.

| IC50 [nM] | SMILES |
| --- | --- |
| 412 | Cc1c(F)cccc1CNC(=O)C1(COC(=O)Nc2ccc(C(F)(F)F)cc2)CCN(C(=O)CN)CC1 [[(1-(2-aminoacetyl)-4-{N-[(3-fluoro-2-methylphenyl)methyl]carbamoyl}(4-piperidyl))methoxy]-N-[4-(trifluoromethyl)phenyl]carboxamide] |
| 1030 | CCc1ccc(NC(=O)OCC2(C(=O)NCc3cccc(F)c3)CCN(C(=O)CN)CC2)cc1 [[(1-(2-aminoacetyl)-4-{N-[(3-fluorophenyl)methyl]carbamoyl}(4-piperidyl))methoxy]-N-(4-ethylphenyl)carboxamide] |
| 2980 | CCc1ccc(NC(=O)OCC2(C(=O)NCc3ncccc3C)CCN(C(=O)CN)CC2)cc1 [[(1-(2-aminoacetyl)-4-{N-[(3-methyl(2-pyridyl))methyl]carbamoyl}(4-piperidyl))methoxy]-N-(4-ethylphenyl)carboxamide] |
| 262 | CCc1ccc(NC(=O)OCC2(C(=O)NCc3ccc(Cl)cc3F)CCN(C(=O)CN)CC2)cc1 [[(1-(2-aminoacetyl)-4-{N-[(4-chloro-2-fluorophenyl)methyl]carbamoyl}(4-piperidyl))methoxy]-N-(4-ethylphenyl)carboxamide] |
| 145 | CCc1ccc(NC(=O)OCC2(C(=O)NCc3ccc(Cl)cc3C)CCN(C(=O)CN)CC2)cc1 [[(1-(2-aminoacetyl)-4-{N-[(4-chloro-2-methylphenyl)methyl]carbamoyl}(4-piperidyl))methoxy]-N-(4-ethylphenyl)carboxamide] |
| 1280 | CCc1ccc(NC(=O)OCC2(C(=O)NCc3ccc(Cl)cc3)CCN(C(=O)CN)CC2)cc1 [[(1-(2-aminoacetyl)-4-{N-[(4-chlorophenyl)methyl]carbamoyl}(4-piperidyl))methoxy]-N-(4-ethylphenyl)carboxamide] |
| 1100 | CCc1ccc(NC(=O)OCC2(C(=O)NCc3ccc(F)cc3)CCN(C(=O)CN)CC2)cc1 [[(1-(2-aminoacetyl)-4-{N-[(4-fluorophenyl)methyl]carbamoyl}(4-piperidyl))methoxy]-N-(4-ethylphenyl)carboxamide] |
| 6810 | CCc1ccc(NC(=O)OC[C@@H](C)N(C)C(=O)NCc2ccccc2Cl)cc1 [[(2R)-2-({[(2-chlorophenyl)methyl]amino}-N-methylcarbonylamino)propoxy]-N-(4-ethylphenyl)carboxamide] |
| 168 | CCc1ccc(NC(=O)OCC2(C(=O)NCc3ccccc3Br)CCN(C(=O)CNC)CC2)cc1 [[(4-{N-[(2-bromophenyl)methyl]carbamoyl}-1-[2-(methylamino)acetyl](4-piperidyl))methoxy]-N-(4-ethylphenyl)carboxamide] |
| 11700 | CCc1ccc(NC(=O)OCC2CN(C(=O)NCc3ccccc3Cl)CCO2)cc1 (stereo not shown) [[(4-{N-[(2-chlorophenyl)methyl]carbamoyl}morpholin-2-yl)methoxy]-N-(4-ethylphenyl)carboxamide] |
| 1880 | CCc1ccc(NC(=O)OCC2(C(=O)NCc3ccccc3Cl)CCC2)cc1 [[({N-[(2-chlorophenyl)methyl]carbamoyl}cyclobutyl)methoxy]-N-(4-ethylphenyl)carboxamide] |
